Columns and labels:
Type in all cases: ADME, organism-based
Plasma [1] = assay: Stability of the compound in healthy human spiked plasma assessed as Colistin methanesulfonate B degradation at 80 mg, iv administered for 60 mins measured under acidic pretreatment by LC-MS/MS assay; details: in vivo, 1 h
Plasma [2] = assay: Stability of the compound in healthy human spiked plasma assessed as Colistin methanesulfonate B degradation at 80 mg, iv administered for 60 mins measured after 4 hrs in room temperature by LC-MS/MS assay; details: in vivo
[3] = Stability of the compound in healthy human spiked urine assessed as Colistin methanesulfonate B degradation at 80 mg, iv administered for 60 mins measured at room temperature by LC-MS/MS assay; details: in vivo, 1 h
Plasma [4] = assay: Stability of the compound in healthy human spiked plasma assessed as Colistin methanesulfonate B degradation at 80 mg, iv administered for 60 mins measured after 2 freeze-thaw cycles by LC-MS/MS assay; details: in vivo, 1 h
Plasma [5] = assay: Stability of the compound in healthy human spiked plasma assessed as initial Colistin methanesulfonate B at 80 mg, iv administered for 60 mins measured under acidic pretreatment by LC-MS/MS assay; details: in vivo, 1 h
[6] = Stability of the compound in healthy human spiked urine assessed as Colistin methanesulfonate B at 80 mg, iv administered for 60 mins measured after 4 hrs in room temperature by LC-MS/MS assay; details: in vivo
[7] = Stability of the compound in healthy human spiked urine assessed as Colistin methanesulfonate B at 80 mg, iv administered for 60 mins measured after 2 freeze-thaw cycles by LC-MS/MS assay; details: in vivo, 1 h
Plasma [8] = assay: Stability of the compound in healthy human spiked plasma assessed as Colistin methanesulfonate A at 80 mg, iv administered for 60 mins measured post 2 months of incubation at -20 degC by LC-MS/MS assay; details: in vivo, 1 h
Plasma [9] = assay: Stability of the compound in healthy human spiked plasma assessed as Colistin methanesulfonate A at 80 mg, iv administered for 60 mins measured under acidic pretreatment by LC-MS/MS assay; details: in vivo, 1 h
Plasma [10] = assay: Stability of the compound in healthy human spiked plasma assessed as Colistin methanesulfonate A degradation at 80 mg, iv administered for 60 mins measured under nonacidic pretreatment by LC-MS/MS assay; details: in vivo, 1 h
Plasma [11] = assay: Stability of the compound in healthy human spiked plasma assessed as Colistin methanesulfonate B at 80 mg, iv administered for 60 mins measured after 5 hrs at 4 degC by LC-MS/MS assay; details: in vivo
[12] = Stability of the compound in healthy human spiked urine assessed as Colistin methanesulfonate B at 80 mg, iv administered for 60 mins measured at room temperature by LC-MS/MS assay; details: in vivo, 1 h
Plasma [13] = assay: Stability of the compound in healthy human spiked plasma assessed as Colistin methanesulfonate B at 80 mg, iv administered for 60 mins measured after 1 hr in room temperature by LC-MS/MS assay; details: in vivo
Plasma [14] = assay: Stability of the compound in healthy human spiked plasma assessed as Colistin methanesulfonate B at 80 mg, iv administered for 60 mins measured under nonacidic pretreatment by LC-MS/MS assay; details: in vivo, 1 h
Plasma [15] = assay: Stability of the compound in healthy human spiked plasma assessed as Colistin methanesulfonate B degradation at 80 mg, iv administered for 60 mins measured post 2 months of incubation at -20 degC by LC-MS/MS assay; details: in vivo, 1 h
Plasma [16] = assay: Stability of the compound in healthy human spiked plasma assessed as Colistin methanesulfonate B at 80 mg, iv administered for 60 mins measured after 4 hrs in room temperature by LC-MS/MS assay; details: in vivo
[17] = Stability of the compound in healthy human spiked urine assessed as Colistin methanesulfonate A degradation at 80 mg, iv administered for 60 mins measured at room temperature by LC-MS/MS assay; details: in vivo, 1 h
Plasma [18] = assay: Stability of the compound in healthy human spiked plasma assessed as Colistin methanesulfonate A degradation at 80 mg, iv administered for 60 mins measured post 2 months of incubation at -20 degC by LC-MS/MS assay; details: in vivo, 1 h
Plasma [19] = assay: Stability of the compound in healthy human spiked plasma assessed as Colistin methanesulfonate A at 80 mg, iv administered for 60 mins measured after 2 freeze-thaw cycles by LC-MS/MS assay; details: in vivo, 1 h
Plasma [20] = assay: Stability of the compound in healthy human spiked plasma assessed as Colistin methanesulfonate B at 80 mg, iv administered for 60 mins measured post 2 months of incubation at -20 degC by LC-MS/MS assay; details: in vivo, 1 h
Plasma [21] = assay: Stability of the compound in healthy human spiked plasma assessed as Colistin methanesulfonate A degradation at 80 mg, iv administered for 60 mins measured after 1 hr in room temperature by LC-MS/MS assay; details: in vivo
Plasma [22] = assay: Stability of the compound in healthy human spiked plasma assessed as Colistin methanesulfonate A at 80 mg, iv administered for 60 mins measured under nonacidic pretreatment by LC-MS/MS assay; details: in vivo, 1 h
[23] = Stability of the compound in healthy human spiked urine assessed as Colistin methanesulfonate B degradation at 80 mg, iv administered for 60 mins measured after 2 freeze-thaw cycles by LC-MS/MS assay; details: in vivo, 1 h
[24] = Stability of the compound in healthy human spiked urine assessed as Colistin methanesulfonate A at 80 mg, iv administered for 60 mins measured after 1 hr in room temperature by LC-MS/MS assay; details: in vivo
Plasma [25] = assay: Stability of the compound in healthy human spiked plasma assessed as Colistin methanesulfonate A degradation at 80 mg, iv administered for 60 mins measured after 2 freeze-thaw cycles by LC-MS/MS assay; details: in vivo, 1 h
Plasma [26] = assay: Stability of the compound in healthy human spiked plasma assessed as initial Colistin methanesulfonate B at 80 mg, iv administered for 60 mins measured after 2 freeze-thaw cycles by LC-MS/MS assay; details: in vivo, 1 h
[27] = Stability of the compound in healthy human spiked urine assessed as Colistin methanesulfonate A degradation at 80 mg, iv administered for 60 mins measured after 2 freeze-thaw cycles by LC-MS/MS assay; details: in vivo, 1 h
[28] = Stability of the compound in healthy human spiked urine assessed as Colistin methanesulfonate B degradation at 80 mg, iv administered for 60 mins measured after 1 hr in room temperature by LC-MS/MS assay; details: in vivo
Plasma [29] = assay: Stability of the compound in healthy human spiked plasma assessed as Colistin methanesulfonate A degradation at 80 mg, iv administered for 60 mins measured after 4 hrs in room temperature by LC-MS/MS assay; details: in vivo
[30] = Stability of the compound in healthy human spiked urine assessed as Colistin methanesulfonate A degradation at 80 mg, iv administered for 60 mins measured after 4 hrs in room temperature by LC-MS/MS assay; details: in vivo
Plasma [31] = assay: Stability of the compound in healthy human spiked plasma assessed as Colistin methanesulfonate B degradation at 80 mg, iv administered for 60 mins measured under nonacidic pretreatment by LC-MS/MS assay; details: in vivo, 1 h
Plasma [32] = assay: Stability of the compound in healthy human spiked plasma assessed as Colistin methanesulfonate B at 80 mg, iv administered for 60 mins measured under acidic pretreatment by LC-MS/MS assay; details: in vivo, 1 h
Plasma [33] = assay: Stability of the compound in healthy human spiked plasma assessed as initial Colistin methanesulfonate A at 80 mg, iv administered for 60 mins measured under acidic pretreatment by LC-MS/MS assay; details: in vivo, 1 h
Plasma [34] = assay: Stability of the compound in healthy human spiked plasma assessed as Colistin methanesulfonate A degradation at 80 mg, iv administered for 60 mins measured under acidic pretreatment by LC-MS/MS assay; details: in vivo, 1 h
Plasma [35] = assay: Stability of the compound in healthy human spiked plasma assessed as Colistin methanesulfonate B at 80 mg, iv administered for 60 mins measured after 2 freeze-thaw cycles by LC-MS/MS assay; details: in vivo, 1 h
Plasma [36] = assay: Stability of the compound in healthy human spiked plasma assessed as initial Colistin methanesulfonate A at 80 mg, iv administered for 60 mins measured post 2 months of incubation at -20 degC by LC-MS/MS assay; details: in vivo, 1 h, pooled result: one value given for 9 cell lines, strains, targets or settings
Plasma [37] = assay: Stability of the compound in healthy human spiked plasma assessed as Colistin methanesulfonate A at 80 mg, iv administered for 60 mins measured after 1 hr in room temperature by LC-MS/MS assay; details: in vivo
[38] = Stability of the compound in healthy human spiked urine assessed as Colistin methanesulfonate A at 80 mg, iv administered for 60 mins measured after 4 hrs in room temperature by LC-MS/MS assay; details: in vivo
[39] = Stability of the compound in healthy human spiked urine assessed as Colistin methanesulfonate B at 80 mg, iv administered for 60 mins measured after 1 hr in room temperature by LC-MS/MS assay; details: in vivo
Plasma [40] = assay: Stability of the compound in healthy human spiked plasma assessed as Colistin methanesulfonate A degradation at 80 mg, iv administered for 60 mins measured after 5 hrs at 4 degC by LC-MS/MS assay; details: in vivo
Plasma [41] = assay: Stability of the compound in healthy human spiked plasma assessed as initial Colistin methanesulfonate B at 80 mg, iv administered for 60 mins measured post 2 months of incubation at -20 degC by LC-MS/MS assay; details: in vivo, 1 h, pooled result: one value given for 9 cell lines, strains, targets or settings
Plasma [42] = assay: Stability of the compound in healthy human spiked plasma assessed as Colistin methanesulfonate B degradation at 80 mg, iv administered for 60 mins measured after 1 hr in room temperature by LC-MS/MS assay; details: in vivo
[43] = Stability of the compound in healthy human spiked urine assessed as Colistin methanesulfonate B degradation at 80 mg, iv administered for 60 mins measured after 4 hrs in room temperature by LC-MS/MS assay; details: in vivo
Plasma [44] = assay: Stability of the compound in healthy human spiked plasma assessed as Colistin methanesulfonate A at 80 mg, iv administered for 60 mins measured after 4 hrs in room temperature by LC-MS/MS assay; details: in vivo
[45] = Stability of the compound in healthy human spiked urine assessed as Colistin methanesulfonate A degradation at 80 mg, iv administered for 60 mins measured after 1 hr in room temperature by LC-MS/MS assay; details: in vivo
Plasma [46] = assay: Stability of the compound in healthy human spiked plasma assessed as Colistin methanesulfonate B degradation at 80 mg, iv administered for 60 mins measured after 5 hrs at 4 degC by LC-MS/MS assay; details: in vivo
[47] = Stability of the compound in healthy human spiked urine assessed as Colistin methanesulfonate A at 80 mg, iv administered for 60 mins measured at room temperature by LC-MS/MS assay; details: in vivo, 1 h
Plasma [48] = assay: Stability of the compound in healthy human spiked plasma assessed as Colistin methanesulfonate A at 80 mg, iv administered for 60 mins measured after 5 hrs at 4 degC by LC-MS/MS assay; details: in vivo
[49] = Stability of the compound in healthy human spiked urine assessed as Colistin methanesulfonate A at 80 mg, iv administered for 60 mins measured after 2 freeze-thaw cycles by LC-MS/MS assay; details: in vivo, 1 h
Plasma [50] = assay: Stability of the compound in healthy human spiked plasma assessed as initial Colistin methanesulfonate A at 80 mg, iv administered for 60 mins measured after 2 freeze-thaw cycles by LC-MS/MS assay; details: in vivo, 1 h

- Stability (Plasma [1]): 29.1%
- Stability (Plasma [2]): 14%
- Stability [3]: 11.6%
- Stability (Plasma [4]): Stable
- Stability (Plasma [5]): 2.508 µg/mL
- Stability [6]: 0.268 µg/mL
- Stability [7]: 0.18 µg/mL
- Stability (Plasma [8]): Unstable
- Stability (Plasma [9]): 1.626 µg/mL
- Stability (Plasma [10]): Stable
- Stability (Plasma [11]): Unstable
- Stability [12]: 0.143 µg/mL
- Stability (Plasma [13]): 0.029 µg/mL
- Stability (Plasma [14]): Unstable
- Stability (Plasma [15]): Stable
- Stability (Plasma [16]): 0.175 µg/mL
- Stability [17]: 16.4%
- Stability (Plasma [18]): Stable
- Stability (Plasma [19]): Unstable
- Stability (Plasma [20]): Unstable
- Stability (Plasma [21]): 3.3%
- Stability (Plasma [22]): Unstable
- Stability [23]: 14.4%
- Stability [24]: 0.835 µg/mL
- Stability (Plasma [25]): Stable
- Stability (Plasma [26]): 0.313 µg/mL
- Stability [27]: 19.9%
- Stability [28]: 16.8%
- Stability (Plasma [29]): 13.9%
- Stability [30]: 29.2%
- Stability (Plasma [31]): Stable
- Stability (Plasma [32]): 0.485 µg/mL
- Stability (Plasma [33]): 7.492 µg/mL
- Stability (Plasma [34]): 32.5%
- Stability (Plasma [35]): Unstable
- Stability (Plasma [36]): 3.746 µg/mL
- Stability (Plasma [37]): 0.123 µg/mL
- Stability [38]: 1.056 µg/mL
- Stability [39]: 0.211 µg/mL
- Stability (Plasma [40]): Stable
- Stability (Plasma [41]): 1.254 µg/mL
- Stability (Plasma [42]): 2.3%
- Stability [43]: 21.4%
- Stability (Plasma [44]): 0.519 µg/mL
- Stability [45]: 22.3%
- Stability (Plasma [46]): Stable
- Stability [47]: 0.614 µg/mL
- Stability (Plasma [48]): Unstable
- Stability [49]: 0.746 µg/mL
- Stability (Plasma [50]): 0.937 µg/mL
Sequence: COLISTIMETHATE SODIUM
